Here are results for 5 compounds from patent US7863283B2, “Sulphoximine-substituted quinazoline derivatives as immuno-modulators, their preparation and use as medicaments” (Bayer Schering Pharma AG, priority 2008, dated 2011).

One assay concerns TNF-α. The assay is described as follows: TLR-induced cytokine release in human PBMC: TNF-alpha (ELISA). It counts as cell-based. The conditions noted are these: human PBMC stimulated using a TLR ligand, incubated 18 hours with test substance, supernatant ELISA. Here is the method: (§1) TLR-Induced Cytokine Release in Human “Peripheral Blood Mononuclear Cells” (PBMC)
(§2) PBMCs isolated from human whole blood are stimulated using a TLR ligand. The cytokine determination is carried out by means of ELISA kits; a proliferation/cell metabolism determination is carried out using Alamar Blue.
(§3) For the cell preparation, about 200 ml of blood are treated with an anticoagulant (e.g. citrate Monovettes). Per Leucosep tube, 15 ml of Histopaque (room temperature, RT) are poured in and pressed downwards through the frit employed by brief initial centrifugation (one minute at 1000×g, RT). 20 ml of blood are added to the tubes prepared in this way and centrifuged at 800×g for 15 minutes (RT). After centrifugation, the following layered arrangement results from the top to the bottom: plasma—PBMC—Histopaque—filter disc—Histopaque—erythrocytes and granulocytes. The supernatant plasma is aspirated. The PBMC are transferred together with the underlying Histopaque to a new 50 ml tube, the contents of two Leucosep tubes always being added to one 50 ml tube. The 50 ml tubes are then filled to 50 ml with PBS. This cell suspension is centrifuged at 300×g (RT) for 10 minutes. The liquid supernatant is tipped off and the cell pellet is resuspended with a little PBS and subsequently filled to 50 ml with PBS. This washing step is repeated twice. The resulting pellet is taken up in a defined volume of medium (with additives). For the testing of the substances, PBMC are incubated for 18 hours with titrated concentrations of the test substances, e.g. in the presence or absence of TLR ligands. On the next day, the supernatants are investigated for the content of IL-12, TNF-alpha or other chemokines by means of specific ELISA. The metabolic activity of the treated cells is determined with the aid of Alamar Blue.
In general terms: An ELISA detects its analyte on a solid surface through an enzyme-linked reagent.

The subject of the next assay is IL-12. The assay is described as follows: TLR-induced cytokine release in human PBMC: IL-12 (ELISA). In kind it is cell-based. Particulars: human PBMC stimulated using a TLR ligand, incubated 18 hours with test substance, supernatant ELISA. Here is the method: as §1, §2, §3

SMILES strings stand for the structures.

For orientation: IC50 means the concentration that inhibits the measured activity by half. Take `CC(C)Nc1ncnc2cc(OCc3cncc(S(C)(=N)=O)c3)c(Br)cc12` (racemic) [Example 3.7, (RS)-S-[5-({[6-Bromo-4-(isopropylamino)quinazolin-7-yl]oxy}methyl)pyridin-3-yl]-S-methylsulphoximide]: the IC50 worked out at 1000 nM in the assay with TNF-α and 4 µM in the assay with IL-12.

As to `CC(C)Nc1ncnc2cc(OCc3ccc(S(C)(=N)=O)cc3)c(Br)cc12` (racemic) [Example 2.8, (RS)-S-[4-({[6-Bromo-4-(isopropylamino)quinazolin-7-yl]oxy}methyl)phenyl]-S-methylsulphoximide], the half-inhibitory concentration (IC50) in the assay with TNF-α came to 4000 nM; in the assay with IL-12, 15 µM.

For the compound `CC(C)Nc1ncnc2cc(OCc3cccc(S(C)(=N)=O)c3)c(Br)cc12` (racemic) [Example 1.2, (RS)-S-[3-({[6-Bromo-4-(isopropylamino)quinazolin-7-yl]oxy}methyl)phenyl]-S-methylsulphoximide], the IC50 was found to be 2100 nM in the assay on TNF-α and 4.1 µM in the assay with IL-12.

Turning to `COc1cc2c(NC(C)C)ncnc2cc1OCCCS(C)(=N)=O` (racemic) [Example 3.4, (RS)-S-(4-{[4-(Isopropylamino)-6-methoxyquinazolin-7-yl]oxy}propyl)-S-methyl-sulphoximide], the values for the IC50 in the assay on TNF-α and in the assay on IL-12 were 10000 nM and 15 µM, respectively.

In the case of `CCS(=N)(=O)c1cccc(COc2cc3ncnc(NC(C)C)c3cc2OC)c1` (racemic) [Example 2.10, (RS)-S-Ethyl-S-[3-({[4-(isopropylamino)-6-methoxyquinazolin-7-yl]oxy}-methyl)phenyl]sulphoximide], the IC50 in the assay on TNF-α was found to be 200 nM; in the assay with IL-12, 0.4 µM.
